Assay results from paper doi:10.1101/2025.01.28.635346v1 (bioRxiv, 2025).
Read-outs that look alike come from different tables or passages of the source. Bridge positions count the residues as written; N and C are the ends. Side chains are listed from the residue outwards. Peptide text beside a SMILES is read from it. * marks the point of attachment. Butanoyl(4-(4-I-phenyl)) = O=C(CCCc1ccc(I)cc1)*; PEG2 = NCCOCCOCCC(=O)O

Columns and labels:
[1] = Hepatocyte stability, cryopreserved mouse hepatocytes; type: in vitro ADME
ADRA1A = biological target: T1, ADRA1A (Homo sapiens, UniProt P35348); experiment: Safetyscan47 GPCR Calcium Flux, Agonist; type: cell-based; conditions: for Emax: read-out: Max Response
T1 sequence (P35348 1-466): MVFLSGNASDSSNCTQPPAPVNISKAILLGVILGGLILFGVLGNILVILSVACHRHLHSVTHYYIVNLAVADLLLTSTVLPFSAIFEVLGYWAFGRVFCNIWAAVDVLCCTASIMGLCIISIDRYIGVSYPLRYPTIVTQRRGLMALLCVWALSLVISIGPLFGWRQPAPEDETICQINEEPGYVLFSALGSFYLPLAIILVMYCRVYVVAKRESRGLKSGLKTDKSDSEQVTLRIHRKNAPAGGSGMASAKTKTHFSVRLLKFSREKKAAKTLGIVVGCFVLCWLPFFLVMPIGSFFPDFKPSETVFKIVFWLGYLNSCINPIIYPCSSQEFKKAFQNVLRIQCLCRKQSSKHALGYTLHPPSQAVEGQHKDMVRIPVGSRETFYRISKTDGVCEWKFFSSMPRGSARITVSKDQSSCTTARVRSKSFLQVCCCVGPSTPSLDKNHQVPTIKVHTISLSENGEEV

AVPR1A = AVPR1A (Homo sapiens, UniProt P37288); experiment: Safetyscan47 GPCR Calcium Flux, Agonist; type: cell-based; conditions: for Emax: read-out: Max Response
AVPR1A, sequence (P37288 whole entry): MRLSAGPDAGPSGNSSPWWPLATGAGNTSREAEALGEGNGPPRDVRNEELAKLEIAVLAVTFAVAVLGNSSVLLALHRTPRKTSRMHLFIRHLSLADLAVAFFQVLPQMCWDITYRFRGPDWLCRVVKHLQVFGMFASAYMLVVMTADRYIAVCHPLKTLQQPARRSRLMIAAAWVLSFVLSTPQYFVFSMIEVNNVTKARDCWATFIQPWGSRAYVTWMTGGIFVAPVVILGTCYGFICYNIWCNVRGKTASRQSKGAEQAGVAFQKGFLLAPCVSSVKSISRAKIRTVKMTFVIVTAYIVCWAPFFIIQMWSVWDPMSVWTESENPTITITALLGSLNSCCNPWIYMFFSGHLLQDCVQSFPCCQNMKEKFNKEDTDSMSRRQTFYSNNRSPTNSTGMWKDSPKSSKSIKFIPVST

EDNRA [2] = biological target: T2, EDNRA (Homo sapiens, UniProt P25101); experiment: Safetyscan47 GPCR Calcium Flux, Agonist; type: cell-based; conditions: for Emax: read-out: Max Response
T2 sequence (P25101 21-427): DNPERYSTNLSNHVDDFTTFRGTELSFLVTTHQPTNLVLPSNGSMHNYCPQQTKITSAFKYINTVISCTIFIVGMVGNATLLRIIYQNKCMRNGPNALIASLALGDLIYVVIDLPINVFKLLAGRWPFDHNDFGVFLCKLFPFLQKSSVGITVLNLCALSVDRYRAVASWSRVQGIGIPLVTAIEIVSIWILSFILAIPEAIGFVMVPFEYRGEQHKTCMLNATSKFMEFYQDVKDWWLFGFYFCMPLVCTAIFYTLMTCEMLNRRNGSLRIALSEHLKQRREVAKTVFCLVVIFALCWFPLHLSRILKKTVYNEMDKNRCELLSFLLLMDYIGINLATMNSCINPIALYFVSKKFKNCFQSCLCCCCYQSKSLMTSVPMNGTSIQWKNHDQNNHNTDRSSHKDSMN

HTR2B = HTR2B (Homo sapiens, UniProt P41595); experiment: Safetyscan47 GPCR Calcium Flux, Agonist; type: cell-based; conditions: for Emax: read-out: Max Response
HTR2B, sequence (P41595 whole entry): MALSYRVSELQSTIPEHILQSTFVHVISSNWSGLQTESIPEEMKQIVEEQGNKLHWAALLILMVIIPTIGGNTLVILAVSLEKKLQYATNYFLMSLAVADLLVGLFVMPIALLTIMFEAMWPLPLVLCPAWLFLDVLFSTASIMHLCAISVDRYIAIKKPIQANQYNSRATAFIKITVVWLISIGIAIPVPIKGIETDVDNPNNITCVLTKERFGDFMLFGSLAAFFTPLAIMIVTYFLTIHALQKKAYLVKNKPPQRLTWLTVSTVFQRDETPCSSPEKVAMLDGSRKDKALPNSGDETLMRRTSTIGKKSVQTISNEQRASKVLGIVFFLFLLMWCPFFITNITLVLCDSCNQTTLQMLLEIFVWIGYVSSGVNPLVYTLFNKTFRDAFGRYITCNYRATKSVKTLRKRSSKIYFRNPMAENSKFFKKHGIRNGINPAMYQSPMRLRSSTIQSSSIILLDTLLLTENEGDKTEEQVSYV

EDNRA [3] = biological target: T2, EDNRA; experiment: Safetyscan47 GPCR Calcium Flux, Antagonist; type: cell-based; conditions: for Emax: read-out: Max Response
HTR2A = HTR2A (Homo sapiens, UniProt P28223); experiment: Safetyscan47 GPCR Calcium Flux, Antagonist; type: cell-based; conditions: for Emax: read-out: Max Response
DRD2S [4] = biological target: T3, DRD2S (Homo sapiens, UniProt P14416); experiment: Safetyscan47 GPCR cAMP, Agonist; type: cell-based; conditions: for Emax: read-out: Max Response
HRH2 = HRH2 (Homo sapiens, UniProt P25021); experiment: Safetyscan47 GPCR cAMP, Agonist; type: cell-based; conditions: for Emax: read-out: Max Response
HRH2, sequence (P25021 whole entry): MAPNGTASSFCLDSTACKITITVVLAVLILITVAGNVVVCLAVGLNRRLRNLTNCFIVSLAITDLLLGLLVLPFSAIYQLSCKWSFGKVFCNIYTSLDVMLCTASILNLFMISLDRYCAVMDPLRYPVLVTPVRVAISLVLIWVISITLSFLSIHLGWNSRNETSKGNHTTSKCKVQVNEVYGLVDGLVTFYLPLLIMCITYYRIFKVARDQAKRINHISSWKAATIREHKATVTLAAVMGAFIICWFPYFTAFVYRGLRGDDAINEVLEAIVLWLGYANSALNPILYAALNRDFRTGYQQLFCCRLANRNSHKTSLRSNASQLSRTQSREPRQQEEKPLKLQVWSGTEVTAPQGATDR

HTR1B [5] = biological target: T4, HTR1B (Homo sapiens, UniProt P28222); experiment: Safetyscan47 GPCR cAMP, Agonist; type: cell-based; conditions: for Emax: read-out: Max Response
OPRK1 = OPRK1 (Homo sapiens, UniProt P41145); experiment: Safetyscan47 GPCR cAMP, Agonist; type: cell-based; conditions: for Emax: read-out: Max Response
OPRK1, sequence (P41145 whole entry): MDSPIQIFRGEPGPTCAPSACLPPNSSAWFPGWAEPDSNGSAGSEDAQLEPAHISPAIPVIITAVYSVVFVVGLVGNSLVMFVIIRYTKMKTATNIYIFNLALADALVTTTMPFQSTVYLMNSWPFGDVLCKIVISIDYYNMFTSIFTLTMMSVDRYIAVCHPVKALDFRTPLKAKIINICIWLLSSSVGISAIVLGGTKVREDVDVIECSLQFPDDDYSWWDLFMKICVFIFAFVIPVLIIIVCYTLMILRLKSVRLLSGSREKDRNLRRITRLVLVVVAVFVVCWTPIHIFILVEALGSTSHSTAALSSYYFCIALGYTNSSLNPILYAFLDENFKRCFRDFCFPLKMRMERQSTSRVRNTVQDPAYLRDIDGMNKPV

DRD2S [6] = biological target: T3, DRD2S; experiment: Safetyscan47 GPCR cAMP, Antagonist; type: cell-based; conditions: for Emax: read-out: Max Response
HTR1B [7] = biological target: T4, HTR1B; experiment: Safetyscan47 GPCR cAMP, Antagonist; type: cell-based; conditions: for Emax: read-out: Max Response
OPRD1 = OPRD1 (Homo sapiens, UniProt P41143); experiment: Safetyscan47 GPCR cAMP, Antagonist; type: cell-based; conditions: for Emax: read-out: Max Response
OPRD1, sequence (P41143 whole entry): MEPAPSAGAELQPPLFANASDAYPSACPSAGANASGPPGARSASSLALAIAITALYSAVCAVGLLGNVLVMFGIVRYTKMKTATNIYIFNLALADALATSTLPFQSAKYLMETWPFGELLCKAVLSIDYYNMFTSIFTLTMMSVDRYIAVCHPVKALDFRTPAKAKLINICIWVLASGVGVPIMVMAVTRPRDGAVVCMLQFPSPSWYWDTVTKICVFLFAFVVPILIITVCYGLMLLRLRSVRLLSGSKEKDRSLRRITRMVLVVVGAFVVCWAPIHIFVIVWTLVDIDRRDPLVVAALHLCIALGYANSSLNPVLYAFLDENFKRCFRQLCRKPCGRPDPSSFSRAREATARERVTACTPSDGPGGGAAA

OPRM1 = OPRM1 (Homo sapiens, UniProt P35372); experiment: Safetyscan47 GPCR cAMP, Antagonist; type: cell-based; conditions: for Emax: OPRM1, read-out: Max Response
OPRM1, sequence (P35372 whole entry): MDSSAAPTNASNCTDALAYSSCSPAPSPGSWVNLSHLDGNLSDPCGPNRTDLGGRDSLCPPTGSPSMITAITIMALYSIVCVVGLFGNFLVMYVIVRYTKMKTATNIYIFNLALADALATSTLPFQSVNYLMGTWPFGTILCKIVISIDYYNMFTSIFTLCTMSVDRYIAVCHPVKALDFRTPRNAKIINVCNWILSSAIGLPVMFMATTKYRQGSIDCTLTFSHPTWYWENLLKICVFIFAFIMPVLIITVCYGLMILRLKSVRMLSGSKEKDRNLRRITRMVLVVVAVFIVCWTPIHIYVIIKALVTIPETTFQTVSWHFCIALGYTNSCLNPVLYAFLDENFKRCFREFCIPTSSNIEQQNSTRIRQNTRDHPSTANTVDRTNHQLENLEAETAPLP

hERG = hERG (Homo sapiens, UniProt Q12809); experiment: Safetyscan47 Ion Channel, Blocker; type: cell-based
hERG, sequence (Q12809 whole entry): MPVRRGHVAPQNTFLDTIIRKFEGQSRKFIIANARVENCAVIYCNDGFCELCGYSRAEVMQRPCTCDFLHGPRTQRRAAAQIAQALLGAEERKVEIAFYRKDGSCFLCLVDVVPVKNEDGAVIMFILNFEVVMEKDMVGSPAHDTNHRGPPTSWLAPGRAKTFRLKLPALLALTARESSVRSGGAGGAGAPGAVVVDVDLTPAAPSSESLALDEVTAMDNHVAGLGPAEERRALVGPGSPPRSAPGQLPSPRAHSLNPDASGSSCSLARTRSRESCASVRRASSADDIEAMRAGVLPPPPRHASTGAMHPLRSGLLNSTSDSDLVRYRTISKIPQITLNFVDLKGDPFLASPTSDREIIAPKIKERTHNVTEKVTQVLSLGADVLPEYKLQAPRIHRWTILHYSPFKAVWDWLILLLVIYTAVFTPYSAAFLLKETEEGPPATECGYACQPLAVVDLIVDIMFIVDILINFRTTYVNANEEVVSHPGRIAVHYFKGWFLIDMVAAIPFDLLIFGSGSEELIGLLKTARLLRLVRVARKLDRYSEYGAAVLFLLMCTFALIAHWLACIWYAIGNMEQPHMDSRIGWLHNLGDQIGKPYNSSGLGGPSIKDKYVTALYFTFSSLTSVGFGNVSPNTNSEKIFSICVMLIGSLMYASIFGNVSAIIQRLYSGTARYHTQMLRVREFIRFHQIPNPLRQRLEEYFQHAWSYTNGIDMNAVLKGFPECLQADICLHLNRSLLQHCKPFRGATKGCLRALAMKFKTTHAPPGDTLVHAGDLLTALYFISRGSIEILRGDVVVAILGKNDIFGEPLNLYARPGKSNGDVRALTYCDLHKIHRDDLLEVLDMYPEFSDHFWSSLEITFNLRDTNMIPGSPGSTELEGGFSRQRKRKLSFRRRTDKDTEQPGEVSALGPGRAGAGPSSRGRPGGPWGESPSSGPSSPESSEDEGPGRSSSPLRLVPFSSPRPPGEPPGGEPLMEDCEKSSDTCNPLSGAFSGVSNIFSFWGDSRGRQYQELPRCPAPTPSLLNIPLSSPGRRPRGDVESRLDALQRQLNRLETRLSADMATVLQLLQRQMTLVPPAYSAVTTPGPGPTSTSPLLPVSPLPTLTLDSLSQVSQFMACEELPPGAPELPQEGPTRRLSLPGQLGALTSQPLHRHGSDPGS

NMDAR (1A/2B) [8] = biological target: T5, NMDAR (1A/2B) (Homo sapiens, UniProt Q05586+Q13224); experiment: Safetyscan47 Ion Channel, Blocker; type: cell-based; conditions: for Emax: read-out: Max Response
T5 sequence (Q13224 27-1484, other chains not shown): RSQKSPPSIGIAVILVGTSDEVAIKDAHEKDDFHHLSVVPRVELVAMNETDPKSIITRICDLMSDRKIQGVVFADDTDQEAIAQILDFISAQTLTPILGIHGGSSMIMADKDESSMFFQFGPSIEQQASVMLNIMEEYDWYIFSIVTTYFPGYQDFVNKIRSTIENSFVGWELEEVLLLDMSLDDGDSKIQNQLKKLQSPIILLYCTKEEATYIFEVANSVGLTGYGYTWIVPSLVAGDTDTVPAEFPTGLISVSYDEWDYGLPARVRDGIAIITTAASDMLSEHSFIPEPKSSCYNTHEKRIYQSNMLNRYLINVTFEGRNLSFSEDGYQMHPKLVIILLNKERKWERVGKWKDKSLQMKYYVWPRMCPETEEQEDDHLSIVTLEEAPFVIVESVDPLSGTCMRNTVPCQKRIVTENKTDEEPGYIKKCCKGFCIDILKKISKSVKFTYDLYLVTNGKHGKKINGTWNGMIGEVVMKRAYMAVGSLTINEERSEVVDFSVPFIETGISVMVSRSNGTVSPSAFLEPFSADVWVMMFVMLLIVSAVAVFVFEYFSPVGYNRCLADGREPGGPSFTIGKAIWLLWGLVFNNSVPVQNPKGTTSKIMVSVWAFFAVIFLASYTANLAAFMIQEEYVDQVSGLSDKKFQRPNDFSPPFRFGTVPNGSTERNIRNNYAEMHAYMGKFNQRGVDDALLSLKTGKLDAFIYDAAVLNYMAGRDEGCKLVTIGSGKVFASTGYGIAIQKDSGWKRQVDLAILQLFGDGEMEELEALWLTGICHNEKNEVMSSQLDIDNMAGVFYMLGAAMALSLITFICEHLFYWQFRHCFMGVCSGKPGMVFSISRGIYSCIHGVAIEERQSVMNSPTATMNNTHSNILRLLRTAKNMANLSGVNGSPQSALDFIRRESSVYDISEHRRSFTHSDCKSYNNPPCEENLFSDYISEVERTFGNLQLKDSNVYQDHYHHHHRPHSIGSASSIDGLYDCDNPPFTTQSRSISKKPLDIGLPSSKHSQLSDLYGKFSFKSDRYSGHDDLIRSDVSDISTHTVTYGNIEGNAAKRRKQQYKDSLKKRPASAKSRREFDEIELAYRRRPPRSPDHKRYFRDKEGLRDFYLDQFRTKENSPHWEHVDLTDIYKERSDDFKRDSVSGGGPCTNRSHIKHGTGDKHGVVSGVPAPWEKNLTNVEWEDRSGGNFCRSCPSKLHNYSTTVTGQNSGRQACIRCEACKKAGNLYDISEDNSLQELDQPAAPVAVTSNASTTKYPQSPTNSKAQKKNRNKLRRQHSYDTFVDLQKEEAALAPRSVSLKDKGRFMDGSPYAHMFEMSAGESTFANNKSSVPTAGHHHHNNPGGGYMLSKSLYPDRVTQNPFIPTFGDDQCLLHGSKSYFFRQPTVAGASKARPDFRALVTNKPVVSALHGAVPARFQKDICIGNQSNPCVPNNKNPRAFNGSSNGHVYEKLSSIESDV

NMDAR (1A/2B) [9] = biological target: T5, NMDAR (1A/2B); experiment: Safetyscan47 Ion Channel, Opener; type: cell-based; conditions: for Emax: read-out: Max Response
INSR = INSR (Homo sapiens, UniProt P06213); experiment: Safetyscan47 Kinases Binding, Inhibitor; conditions: for Emax: read-out: Max Response
SERT = SERT (Homo sapiens, UniProt P31645); experiment: Safetyscan47 Transporter, Blocker; type: cell-based; conditions: for Emax: read-out: Max Response

With `CC[C@H](C)[C@H](NC(=O)[C@H](CC(C)C)NC(=O)[C@H](CC(=O)O)NC(=O)CNC(=O)[C@H](CCCNC(=N)N)NC(=O)[C@@H](NC(=O)[C@H](Cc1ccccc1)NC(=O)[C@H](Cc1ccc(O)cc1)NC(=O)[C@@H]1CCC(=O)NCC(=O)NCC(=O)N[C@@H](CCCNC(=N)N)C(=O)NCC(=O)N[C@@H](Cc2c[nH]cn2)C(=O)N[C@@H](C(C)C)C(=O)N2CCC[C@H]2C(=O)N1)C(C)C)C(=O)N[C@@H](CO)C(=O)N[C@@H](Cc1ccccc1)C(=O)N[C@@H](Cc1ccc(O)cc1)C(=O)N[C@@H](CCCCN)C(=O)O` [lassotide 36] (GGRGHVPEYFVRGDLISFYK-OH; lactam N-8) the half-life at 2 μM [1] was 3.57 h, the remaining at 1 h, 2 μM [1] was 98.7% and the remaining at 3 h, 2 μM [1] was 56.9%. It also gave an EC50 (ADRA1A) greater than 45 µM, an Emax (ADRA1A) of 2.01% and an EC50 (AVPR1A) greater than 45 µM. The Emax (AVPR1A) was 1.03%, the EC50 (EDNRA [2]) was greater than 45 µM and the Emax (EDNRA [2]) was 1.75%. It also gave an EC50 (HTR2B) greater than 45 µM, an Emax (HTR2B) of 0% and an IC50 (EDNRA [3]) greater than 45 µM. For the same compound, the Emax (EDNRA [3]) was 2.52%, the IC50 (HTR2A) was greater than 45 µM and the Emax (HTR2A) was 5.08%. The EC50 (DRD2S [4]) was greater than 45 µM, the Emax (DRD2S [4]) was 0% and the EC50 (HRH2) was greater than 45 µM. For the same compound, the Emax (HRH2) was 0%, the EC50 (HTR1B [5]) was greater than 45 µM and the Emax (HTR1B [5]) was 2.61%. The EC50 (OPRK1) was greater than 45 µM, the Emax (OPRK1) was 2.19% and the IC50 (DRD2S [6]) was greater than 45 µM. The Emax (DRD2S [6]) was 0%, the IC50 (HTR1B [7]) was greater than 45 µM and the Emax (HTR1B [7]) was 0%. It also gave an IC50 (OPRD1; RC50, Antagonist, Result Type IC50) greater than 45 µM, an Emax (OPRD1) of 0% and an IC50 (OPRM1) greater than 45 µM. The Emax (OPRM1) was 0%, the IC50 (hERG) was greater than 45 µM and the Emax (hERG; human) was 5.06%. The IC50 (NMDAR (1A/2B) [8]) was greater than 45 µM, the Emax (NMDAR (1A/2B) [8]) was 0% and the EC50 (NMDAR (1A/2B) [9]) was greater than 45 µM. It also gave an Emax (NMDAR (1A/2B) [9]) of 4.66%, an IC50 (INSR) greater than 45 µM and an Emax (INSR) of 17.4%. It also gave an IC50 (SERT) greater than 45 µM and an Emax (SERT) of 17.5%.
Compound `CC[C@H](C)[C@H](NC(=O)[C@H](CC(C)C)NC(=O)[C@H](CC(=O)O)NC(=O)CNC(=O)[C@H](CCCNC(=N)N)NC(=O)[C@@H](NC(=O)[C@H](Cc1ccccc1)NC(=O)[C@H](Cc1ccc(O)cc1)NC(=O)[C@@H]1CCC(=O)NCC(=O)NCC(=O)N[C@@H](CCCNC(=N)N)C(=O)NCC(=O)N[C@@H](Cc2c[nH]cn2)C(=O)N[C@@H](C(C)C)C(=O)N2CCC[C@H]2C(=O)N1)C(C)C)C(=O)N[C@@H](CO)C(=O)N[C@@H](Cc1ccccc1)C(=O)N[C@@H](Cc1ccc(O)cc1)C(=O)N[C@@H](CCCCNC(=O)CCOCCOCCNC(=O)CCCc1ccc(I)cc1)C(=O)O` [lassotide 47] (GGRGHVPEYFVRGDLISFYK([PEG2-Butanoyl(4-(4-I-phenyl))])-OH; lactam N-8) has a half-life at 2 μM [1] of 2.69 h, a remaining at 1 h, 2 μM [1] of 87.8% and a remaining at 3 h, 2 μM [1] of 46.5%. The EC50 (ADRA1A) was greater than 45 µM, the Emax (ADRA1A) was 0.52% and the EC50 (AVPR1A) was greater than 45 µM. For the same compound, the Emax (AVPR1A) was 8.02%, the EC50 (EDNRA [2]) was greater than 45 µM and the Emax (EDNRA [2]) was 2.94%. For the same compound, the EC50 (HTR2B) was greater than 45 µM, the Emax (HTR2B) was 0% and the IC50 (EDNRA [3]) was greater than 45 µM. It also gave an Emax (EDNRA [3]) of 0%, an IC50 (HTR2A) greater than 45 µM and an Emax (HTR2A) of 10.7%. For the same compound, the EC50 (DRD2S [4]) was greater than 45 µM, the Emax (DRD2S [4]) was 24.1% and the EC50 (HRH2) was greater than 45 µM. For the same compound, the Emax (HRH2) was 0%, the EC50 (HTR1B [5]) was greater than 45 µM and the Emax (HTR1B [5]) was 22.4%. The EC50 (OPRK1) was greater than 45 µM, the Emax (OPRK1) was 23.4% and the IC50 (DRD2S [6]) was greater than 45 µM. For the same compound, the Emax (DRD2S [6]) was 0%, the IC50 (HTR1B [7]) was greater than 45 µM and the Emax (HTR1B [7]) was 0%. The IC50 (OPRD1; RC50 (IC50), GPCR cAMP, Antagonist, OPRD1) was 40.3 µM, the Emax (OPRD1) was 56.4% and the IC50 (OPRM1) was greater than 45 µM. For the same compound, the Emax (OPRM1) was 0%, the Emax (hERG; human) was 1.41% and the IC50 (hERG; human) was greater than 45 µM. The IC50 (NMDAR (1A/2B) [8]) was greater than 45 µM, the Emax (NMDAR (1A/2B) [8]) was 0% and the EC50 (NMDAR (1A/2B) [9]) was greater than 45 µM. The Emax (NMDAR (1A/2B) [9]) was 3.52%, the IC50 (INSR) was greater than 45 µM and the Emax (INSR) was 11.2%. For the same compound, the IC50 (SERT) was greater than 45 µM and the Emax (SERT) was 22.5%.
